Experimental data published in patent publication US20110319491A1, “ANHYDROUS DEPIGMENTING COMPOSITIONS COMPRISING, WITHIN THE FATTY PHASE THEREOF, A SOLUBILIZED PHENOLIC COMPOUND AND A RETINOID” (GALDERMA RESEARCH & DEVELOPMENT, priority 2009, published 2011).
Read-outs that look alike come from different tables or passages of the source.

Legend:
[1] = Stability of rucinol in solvent oils and lipophilic surfactants (HPLC assay); format: physicochemical; conditions: T0 = 100%
Text: Assay technique by HPLC against reference substance.
The initial time (T0) is considered as 100%.

[2] = Chemical stability of the formulations (HPLC assay of the active agents); format: physicochemical; conditions: for Chemical stability: rucinol assay, % relative to the theoretical value: in composition of Example 3; for Chemical stability: hydroquinone assay, % relative to the theoretical value: in composition of Example 2
Description: The chemical stability is measured by assaying the active agents by external calibration in HPLC and the results are expressed as a % of […] relative to the theoretical value.

[3] = Rucinol solubilities in solvents (HPLC); format: physicochemical
[4] = cited from earlier work
[5] = Stability of hydroquinone in solvent oils and lipophilic surfactants (HPLC assay, colour)
[6] = in Caprylic capric triglycerides
[7] = in Cremophor EL, 1 month, 40° C.
[8] = in Cremophor EL, 3 months, 40° C.
[9] = in Crodamol DA, 1 month, 40° C.
[10] = in Crodamol DA, 3 months, 40° C.
[11] = in Ethanol/water (20/80), 1 month, 40° C.
[12] = in Ethanol/water (20/80), 1 month, RT
[13] = in Ethanol/water (20/80), 3 months, 40° C.
[14] = in Ethanol/water (20/80), 3 months, RT
[15] = in Propylene glycol, 1 month, 40° C.
[16] = in Propylene glycol, 1 month, RT
[17] = in Propylene glycol, 3 months, 40° C.
[18] = in Propylene glycol, 3 months, RT

## CCCCc1ccc(O)cc1O [Rucinol, 4-butylresorcinol]
[1]; in Arlamol E, 40° C.
  T + 1 month (% LC): 94.4 % LC
[1]; in Arlamol E, RT
  T + 1 month (% LC): 95 % LC
[1]; in Cremophor EL, 40° C.
  T + 1 month (% LC): 96.2 % LC
[1]; in Cremophor EL, RT
  T + 1 month (% LC): 96 % LC
[1]; in Ethanol, 40° C.
  T + 1 month (% LC): 105 % LC
[1]; in Ethanol, RT
  T + 1 month (% LC): 100.4 % LC
[1]; in Labrasol, 40° C.
  T + 1 month (% LC): 100.8 % LC
[1]; in Labrasol, RT
  T + 1 month (% LC): 97.8 % LC
[1]; in Miglyol, 40° C.
  T + 1 month (% LC): 99.8 % LC
[1]; in Miglyol, RT
  T + 1 month (% LC): 91.2 % LC
[2]; 4° C., T + 1 M
  Chemical stability: rucinol assay, % relative to the theoretical value: 99.4%
[2]; 4° C., T + 2 M
  Chemical stability: rucinol assay, % relative to the theoretical value: 97.4%
[2]; 40° C., T + 1 M
  Chemical stability: rucinol assay, % relative to the theoretical value: 98.8%
[2]; 40° C., T + 2 M
  Chemical stability: rucinol assay, % relative to the theoretical value: 97.8%
[2]; RT, T0
  Chemical stability: rucinol assay, % relative to the theoretical value: 98.1%
[2]; RT, T + 1 M
  Chemical stability: rucinol assay, % relative to the theoretical value: 100.6%
[2]; RT, T + 2 M
  Chemical stability: rucinol assay, % relative to the theoretical value: 101.6%
[3]; in Arlamol E
  Max. solubility (% w/w): 48.2 % w/w
[3]; [6]
  Max. solubility (% w/w): 47.8 % w/w
[3]; in Castor oil
  Max. solubility (% w/w): 46.4 % w/w
[3]; in Cremophor EL
  Max. solubility (% w/w): 49.7 % w/w
[3]; in Crodamol DA
  Max. solubility (% w/w): 64.1 % w/w
[3]; in Ethanol
  Max. solubility (% w/w): >75.5 % w/w
[3]; in Glycerol
  Max. solubility (% w/w): 63.8 % w/w
[3]; in Labrasol
  Max. solubility (% w/w): 60.9 % w/w
[3]; in Lauroglycol
  Max. solubility (% w/w): 52.8 % w/w
[3]; in PEG 400
  Max. solubility (% w/w): 61.6 % w/w
[3]; in Propylene glycol
  Max. solubility (% w/w): >67.7 % w/w
[3]; in all the solvents tested
  Solubility of rucinol (in words): very good solubility

## Oc1ccc(O)cc1 [Hydroquinone, hydroquinone]
[4]; 2% hydroquinone concentration
  Incidence of irritation: virtually nonexistent
[4]; 10% hydroquinone concentration
  Incidence of irritation: relatively high
[4]; preparations with a 5% dose of hydroquinone
  Incidence of irritation: reduces greatly
[2]; 40° C., T + 1 M
  Chemical stability: hydroquinone assay, % relative to the theoretical value: 97.6%
[2]; 40° C., T + 2 M
  Chemical stability: hydroquinone assay, % relative to the theoretical value: 100.8%
[2]; 40° C., T + 3 M
  Chemical stability: hydroquinone assay, % relative to the theoretical value: 99.2%
[2]; 40° C., T + 6 M
  Chemical stability: hydroquinone assay, % relative to the theoretical value: 97.2%
[2]; RT, T + 1 M
  Chemical stability: hydroquinone assay, % relative to the theoretical value: 98.9%
[2]; RT, T + 2 M
  Chemical stability: hydroquinone assay, % relative to the theoretical value: 101.8%
[2]; RT, T + 3 M
  Chemical stability: hydroquinone assay, % relative to the theoretical value: 98.8%
[2]; RT, T + 6 M
  Chemical stability: hydroquinone assay, % relative to the theoretical value: 100.6%
[5]; in Arlamol E, 1 month, 40° C.
  % (HPLC assay, T0 = 100%): 95.5%
  Colour: Colourless
[5]; in Arlamol E, 1 month, RT
  % (HPLC assay, T0 = 100%): 95.9%
  Colour: Colourless
[5]; in Arlamol E, 3 months, 40° C.
  % (HPLC assay, T0 = 100%): 96.0%
  Colour: Colourless
[5]; in Arlamol E, 3 months, RT
  % (HPLC assay, T0 = 100%): 95.9%
  Colour: Colourless
[5]; [7]
  % (HPLC assay, T0 = 100%): 87.1%
  Colour: Brown
[5]; in Cremophor EL, 1 month, RT
  % (HPLC assay, T0 = 100%): 91.4%
  Colour: Orange
[5]; [8]
  % (HPLC assay, T0 = 100%): 85.1%
  Colour: Brown++
[5]; in Cremophor EL, 3 months, RT
  % (HPLC assay, T0 = 100%): 87%
  Colour: Brown+
[5]; in Cremophor EL, browning that becomes pronounced over time and with temperature
  Macroscopic stability of hydroquinone (in words): macroscopic instability
[5]; in Crodamol DA, Arlamol E and Labrasol
  Chemical and physical stability of hydroquinone (in words): good chemical and physical stability
[5]; [9]
  % (HPLC assay, T0 = 100%): 95.9%
  Colour: Colourless
[5]; in Crodamol DA, 1 month, RT
  % (HPLC assay, T0 = 100%): 96.5%
  Colour: Colourless
[5]; [10]
  % (HPLC assay, T0 = 100%): 97.4%
  Colour: Colourless
[5]; in Crodamol DA, 3 months, RT
  % (HPLC assay, T0 = 100%): 97.6%
  Colour: Colourless
[5]; [11]
  % (HPLC assay, T0 = 100%): 91.7%
  Colour: Dark pink
[5]; [12]
  % (HPLC assay, T0 = 100%): 94.4%
  Colour: Orange
[5]; [13]
  % (HPLC assay, T0 = 100%): 89.4%
  Colour: Brown
[5]; [14]
  % (HPLC assay, T0 = 100%): 93.9%
  Colour: Orange
[5]; in Glycerol, 1 month, 40° C.
  % (HPLC assay, T0 = 100%): 93.5%
  Colour: Dark yellow
[5]; in Glycerol, 1 month, RT
  % (HPLC assay, T0 = 100%): 95.0%
  Colour: Yellow
[5]; in Glycerol, 3 months, 40° C.
  % (HPLC assay, T0 = 100%): 93.3%
  Colour: Orange
[5]; in Glycerol, 3 months, RT
  % (HPLC assay, T0 = 100%): 93.0%
  Colour: Pink
[5]; in Labrasol, 1 month, 40° C.
  % (HPLC assay, T0 = 100%): 95.2%
  Colour: Colourless
[5]; in Labrasol, 1 month, RT
  % (HPLC assay, T0 = 100%): 95.4%
  Colour: Colourless
[5]; in Labrasol, 3 months, 40° C.
  % (HPLC assay, T0 = 100%): 95.1%
  Colour: Colourless
[5]; in Labrasol, 3 months, RT
  % (HPLC assay, T0 = 100%): 94.6%
  Colour: Colourless
[5]; in Miglyol, 1 month, 40° C.
  % (HPLC assay, T0 = 100%): 95%
  Colour: Colourless
[5]; in Miglyol, 1 month, RT
  % (HPLC assay, T0 = 100%): 94.2%
  Colour: Colourless
[5]; in Miglyol, 3 months, 40° C.
  % (HPLC assay, T0 = 100%): 95%
  Colour: Colourless
[5]; in Miglyol, 3 months, RT
  % (HPLC assay, T0 = 100%): 93.1%
  Colour: Colourless
[5]; in PEG 400, 1 month, 40° C.
  % (HPLC assay, T0 = 100%): 91.4%
  Colour: Orange
[5]; in PEG 400, 1 month, RT
  % (HPLC assay, T0 = 100%): 93.4%
  Colour: Pink
[5]; in PEG 400, 3 months, 40° C.
  % (HPLC assay, T0 = 100%): 91.8%
  Colour: Brown
[5]; in PEG 400, 3 months, RT
  % (HPLC assay, T0 = 100%): 89.0%
  Colour: Brown
[5]; [15]
  % (HPLC assay, T0 = 100%): 91.8%
  Colour: Yellow
[5]; [16]
  % (HPLC assay, T0 = 100%): 97.0%
  Colour: Colourless
[5]; [17]
  % (HPLC assay, T0 = 100%): 88.8%
  Colour: Dark yellow
[5]; [18]
  % (HPLC assay, T0 = 100%): 94.2%
  Colour: Yellow
[5]; in solvents of the prior art such as glycols, RT and 40° C., absence of antioxidants
  Colour stability of hydroquinone (in words): colouration is observed
In Arlamol E
  Max. solubility (w/w): 11.9 w/w
[6]
  Max. solubility (w/w): 1.7 w/w
In Castor oil
  Max. solubility (w/w): 6.5 w/w
In Cremophor EL
  Max. solubility (w/w): 27.9 w/w
  Solubility of hydroquinone (in words): high solubility
In Crodamol DA
  Max. solubility (w/w): 10.7 w/w
In Ethanol/water (20/80)
  Max. solubility (w/w): 17 w/w
In Glycerol
  Max. solubility (w/w): 15.6 w/w
In Labrasol
  Max. solubility (w/w): 28.9 w/w
In Lauroglycol
  Max. solubility (w/w): 5.5 w/w
In PEG 400
  Max. solubility (w/w): 19.8 w/w
In Propylene glycol
  Max. solubility (w/w): 15.6 w/w
